The test system of assay [1] is K562. In words: Induction of cell cycle arrest at G0/G1 stage in human K562 cells at 4 uM treated for 24 hrs by PI/RNase staining based flow cytometry (reference value: 38.8 %). Format: functional. Background: In flow cytometry, cells or beads pass a laser one at a time.
The subject of assay [2] is K562. In words: Induction of cell cycle arrest at G0/G1 stage in human K562 cells at 16 uM treated for 24 hrs by PI/RNase staining based flow cytometry (reference value: 38.8 %). Format: functional.
Assay [3] deals with K562. In words: Induction of cell cycle arrest at G0/G1 stage in human K562 cells at 8 uM treated for 24 hrs by PI/RNase staining based flow cytometry (reference value: 38.8 %). It counts as functional.
The test system of assay [4] is K562. In words: cells. The conditions noted are these: Homo sapiens, K562, 72 h.
For the next assay, the system named is HCT-116. In words: cells. To be noted: Homo sapiens, HCT-116, 96 h.
For a further assay, the system named is HL-60. The experiment in a line: cells. To be noted: Homo sapiens, HL-60, 72 h.
The subject of assay [5] is MOLM-13. In words: Induction of cell cycle arrest at G0/G1 stage in human MOLM-13 cells at 2 uM treated for 24 hrs by PI/RNase staining based flow cytometry (reference value: 53.98 %). It counts as functional.
Assay [6] relates to MOLM-13. The experiment in a line: cells. The conditions noted are these: Homo sapiens, MOLM-13, 72 h.
The test system of assay [7] is MOLM-13. The experiment in a line: Induction of cell cycle arrest at G0/G1 stage in human MOLM-13 cells at 8 uM treated for 24 hrs by PI/RNase staining based flow cytometry (reference value: 53.98 %). It counts as functional.
Assay [8] has as its system MOLM-13. In words: Induction of cell cycle arrest at G0/G1 stage in human MOLM-13 cells at 4 uM treated for 24 hrs by PI/RNase staining based flow cytometry (reference value: 53.98 %). Format: functional.

Among the data in ChEMBL document CHEMBL5500388, “Design, synthesis and biological evaluation of 4-(indolin-1-yl)-6-substituted-pyrido[3,2-d]pyrimidine derivatives as Mnk1/2 inhibitors” (Eur J Med Chem, 2024) are Activity and GI50 values, retold here.

As a reminder, the GI50 is the concentration that inhibits growth by half. Read a low GI50 as greater sensitivity of the cells.

Regarding `Nc1ncnc2[nH]nc(Nc3ccc(F)cc3)c12`, the Activity with K562 [1] came to 48.93%; in the assay on K562 [2], 58.15%; with K562 [3] it was 52.06%; with MOLM-13 [5], 55.79%; in the assay with MOLM-13 [7] it was 66.39%; with MOLM-13 [8] it was 59.95%. For the same molecule, the GI50 in the assay with K562 [4] was determined as 26.6 µM; in the assay with HCT-116 it was 10.2 µM; in the assay on HL-60 it was 8.42 µM; with MOLM-13 [6] it was 10.7 µM.
